# pIC50: −log10 of the molar value. Read-outs that look alike come from different tables or passages of the source.
# Tests used:
# [1] = tested on: P. aeruginosa (PAO1); test: Potentiating of chloramphenicol activity by aminosteroidal derivative; format: cell-based, Pseudomonas aeruginosa; details: Chloramphenicol concentration used 4 μg/ml
# Protocol: This method requires the use of a 96-well plate; 100 μl of a liquid culture medium are deposited in each well and then inoculated with the microbial suspension prepared above. The necessary volume to be inoculated is calculated for an OD of 0.01, which corresponds to approximately 5×10^6 bacteria in each well. In this plate, the first line corresponds to a negative control (200 μl of sterile culture medium in each well), the second line to a positive control (100 μl of sterile culture medium+100 μl of a bacterial suspension), the third line contains 192 μl of culture medium; 8 μl of aminosteroidal product to be tested are placed in each well. Subsequently, cascade dilution is carried out starting from this line. […] 92 μl of bacterial suspension are subsequently added to lines 3 to 8. […] After incubating at 37° C. for 24 h, 40 μl of nitrotetrazolium iodide are added to each well, making it possible to reveal the presence of living bacteria by coloring the medium pink.
# (§1) The use of low amounts of aminosteroidal derivatives makes it possible to restore (to reduce) the necessary concentration of antibiotic to kill the strain under consideration.
# [2] = tested on: P. aeruginosa (PAO1); test: Potentiating of doxycycline activity by aminosteroidal derivative; format: cell-based, Pseudomonas aeruginosa; details: Doxycycline concentration used 2 μg/ml, 37° C., 24 h
# Protocol: This method requires the use of a 96-well plate; 100 μl of a liquid culture medium are deposited in each well and then inoculated with the microbial suspension prepared above. The necessary volume to be inoculated is calculated for an OD of 0.01, which corresponds to approximately 5×10^6 bacteria in each well. In this plate, the first line corresponds to a negative control (200 μl of sterile culture medium in each well), the second line to a positive control (100 μl of sterile culture medium+100 μl of a bacterial suspension), the third line contains 192 μl of culture medium; 8 μl of aminosteroidal product to be tested are placed in each well. Subsequently, cascade dilution is carried out starting from this line. 8 μl of a doxycycline solution (1 mg dissolved in 20 ml) are subsequently added to each well of lines 3 to 8, in order to obtain a final concentration of antibiotic of 2 μg/ml. 92 μl of bacterial suspension are subsequently added to lines 3 to 8. The results (the determination of the MIC (2 μg/ml of doxycycline) in the presence of X μg/ml of aminosteroidal derivative) are read after incubating at 37° C. for 24 h in a humid atmosphere. After incubating at 37° C. for 24 h, 40 μl of nitrotetrazolium iodide are added to each well, making it possible to reveal the presence of living bacteria by coloring the medium pink.
# as §1
# [3] = tested on: E. coli ATCC 25922; test: Minimum inhibitory concentration (MIC), microplate dilution; format: cell-based; details: Escherichia coli, ATCC25922
# Protocol: (§2) A positive control (1940 μl of culture medium+40 μl of DMSO+20 μl of the bacterial suspension) from a defrosted biological strain (the preservation of the biological strains is carried out at −80° C. in glycerol).
# (§3) The microorganisms were handled under a hood in the laboratory of L2 type and, before any handling operation, a UV cycle was programmed and only sterile material was used. […] The chemical molecules to be tested were prepared in a DMSO/methanol (50/50) mixture at a concentration of 5 mg/ml.
# (§4) After incubating for 24 h, the optical density was measured using a spectrophotometer at 600 nm by withdrawing 100 μl of the bacterial suspension diluted in 900 μl of the sterile culture medium. This test required the use of a 96-well plate and the necessary volume of the microbial suspension to be inoculated was calculated for an OD corresponding to a value equal to 0.01 in each well. In this plate, the first line corresponded to the negative control (195 μl of sterile culture medium in each well), the second line to the positive control (inoculated culture medium with the addition of 2% of DMSO), the third line was charged twice with bacterial suspension, 8 μl of product to be tested was placed in each well. Subsequently, cascade half dilution was carried out starting from this line.
# (§5) The first column was used as inhibition control. A sterile filter was subsequently placed on the microplate, allowing the passage of gases but not of contaminants. The microplate was incubated at 37° C. in a humid atmosphere for 24 h.
# (§6) NB: The medium used is the Mueller-Hinton (MH) medium for the bacteria. All the tests were carried out in duplicate.
# (§7) After incubation, the filter was replaced with a transparent film and subsequently reading of OD was carried out in an IEMS plate spectrophotometer at 620 nm. A calculation of the minimum inhibitory concentration (MIC) was carried out.
# [4] = tested on: S. aureus Methicillin-resistant; test: as above; format: cell-based; details: Staphylococcus aureus
# Protocol: as §2, §3, §4, §5, §6, §7
# [5] = tested on: CHO-K1 cells; test: WST-1 cytotoxicity test; format: cell-based, Chinese hamster; details: Cricetulus griseus, WST-1 test, 24 hours, concentration reducing cell viability by 50%
# Protocol: The WST-1 test was used to measure the cytotoxic activity of the products. This is a colorimetric test which makes it possible to measure the viability and the degree of cell proliferation.
# The WST-1 test was carried out on Chinese hamster ovary cells. The CHO-K1 cells (ATCC, USA) are kept cultured in McCoy's 5 A medium additivated with 10% of fetal calf serum, with 2 mM of L-glutamine and with a penicillin/streptomycin mixture (100 U/ml: 10 μg/ml). Incubating is carried out at 37° C. under an atmosphere enriched in CO2 (5%) and subculturing is carried out every two days.
# The cells are transferred into 96-well plates (25 000 cells/ml) in complete McCoy's 5 A medium and are maintained at 37° C. for 24 h under a humid atmosphere enriched in CO2 (5%). Increasing concentrations of test products are added to the wells in duplicate tests and 8 growth controls containing the cells in the medium alone are included in each series of tests. After 24 hours at 37° C. (5% of CO2), the culture medium is removed, the cells are rinsed in phosphate buffer (PBS) and 50 μl of PBS containing 10% of WST-1 reactant are added to each well. After incubating at 37° C. for 20 minutes, the results are read by spectrophotometry at 450 nm.
# The results are expressed in the form of dose-response relationships, modeled by a nonlinear regression analysis using the TableCurve software.
# [6] = tested on: C. albicans; test: Minimum inhibitory concentration (MIC), microplate dilution; format: cell-based, C. albicans CIP 1180-79; details: Candida albicans; Table I; 37° C., 24 h
# Protocol: (§8) A positive control (1940 μl of culture medium+40 μl of DMSO+20 μl of the bacterial suspension) from a defrosted biological strain (the preservation of the biological strains is carried out at −80° C. in glycerol). The strains used are S. aureus ATCC 25923, E. coli ATCC 25922, P. aeruginosa ATCC 27853, C. albicans CIP 1180-79 and E. faecalis CIP 103015.
# as §3, §4, §5, §6, §7
# [7] = tested on: S. faecalis; test: as above; format: cell-based, E. faecalis CIP 103015; details: Enterococcus faecalis; Table I; Mueller-Hinton medium, 37° C., 24 h
# Protocol: as §8, §3, §4, §5, §6, §7
# [8] = tested on: S. aureus ATCC 25923; test: as above; format: cell-based; details: Staphylococcus aureus, ATCC25923; Table I; Mueller-Hinton medium, 37° C., 24 h
# Protocol: as §8, §3, §4, §5, §6, §7
# [9] = tested on: P. aeruginosa ATCC 27853; test: as above; format: cell-based; details: Pseudomonas aeruginosa, ATCC27853; Table I; Mueller-Hinton medium, 37° C., 24 h
# Protocol: as §8, §3, §4, §5, §6, §7
# [10] = tested on: P. aeruginosa (PAO1); test: MIC of conventional antibiotics alone; format: cell-based; details: Pseudomonas aeruginosa, PAO1
# [11] = Table I, Mueller-Hinton medium, 37° C., 24 h, read-out: MIC E. coli ATCC 25922
# [12] = Table II, comparison with state of the art compounds, read-out: MIC E. coli
# [13] = Table I, Mueller-Hinton medium, 37° C., 24 h
# [14] = Table II, comparison with state of the art compounds
SMILES,Concentration of compound necessary in order to restore the activity of the antibiotic under consideration: Chloramphenicol [1],Concentration of compound necessary in order to restore the activity of the antibiotic under consideration: Doxycycline [2],"MIC [3, 11]","MIC [3, 12]","MIC [4, 13]","MIC [4, 14]",pIC50 [5],MIC [6],MIC [7],MIC [8],MIC [9],MIC [10]
"CC(C)CCC[C@@H](C)[C@H]1CCC2C3C(CC[C@@]21C)[C@@]1(C)CC[C@H](NCCCNCCCCNCCCN)C[C@@H]1C[C@H]3O (stereo partly drawn) [SA-1, 3β-Spermino-7α-hydroxy-5α-cholestane]",16 µg/mL,4 µg/mL,16 mg/L,16 mg/L,2 mg/L,2 mg/L,4.82,2 mg/L,2 mg/L,4 mg/L,32 mg/L,–
"CC(C)CCC[C@@H](C)[C@H]1CCC2C3C(CC[C@@]21C)[C@@]1(C)CC[C@H](NCCCNCCCCNCCCN)C[C@@H]1C[C@@H]3O (stereo partly drawn) [SA-2, 3β-Spermino-7β-hydroxy-5α-cholestane]",16 µg/mL,4 µg/mL,32 mg/L,32 mg/L,2 mg/L,2 mg/L,4.30,2 mg/L,2 mg/L,4 mg/L,32 mg/L,–
"CC(C)CCC[C@@H](C)[C@H]1CCC2C3C(CC[C@@]21C)[C@@]1(C)CC[C@H](NCCCNCCCN)C[C@@H]1C[C@@H]3O (stereo partly drawn) [SA-3, 3β-Norspermidino-7β-hydroxy-5α-cholestane]",10 µg/mL,5 µg/mL,20 mg/L,20 mg/L,2.5 mg/L,2.5 mg/L,4.49,2.5 mg/L,2.5 mg/L,5 mg/L,40 mg/L,–
"CC(C)CCC[C@@H](C)[C@H]1CCC2C3C(CC[C@@]21C)[C@@]1(C)CC[C@H](NCCCN)C[C@@H]1C[C@H]3O (stereo partly drawn) [SA-4, 3β-(1,3-Diaminopropane)-7β-hydroxy-5α-cholestane]",–,–,32 mg/L,32 mg/L,2 mg/L,2 mg/L,5.05,2 mg/L,2 mg/L,4 mg/L,32 mg/L,–
"CC(C)CCC[C@@H](C)[C@H]1CCC2C3C(CC[C@@]21C)[C@@]1(C)CC[C@H](NCCCCN)C[C@@H]1C[C@H]3O (stereo partly drawn) [SA-5, 3β-(1,4-Diaminobutane)-7β-hydroxy-5α-cholestane]",–,–,32 mg/L,32 mg/L,4 mg/L,4 mg/L,4.82,4 mg/L,4 mg/L,4 mg/L,32 mg/L,–
"CC(C)CCC[C@@H](C)[C@H]1CCC2C3C(CC[C@@]21C)[C@@]1(C)CC[C@H](NCCN(CCN)CCN)C[C@@H]1C[C@H]3O (stereo partly drawn) [SA-6, 3β-(Tris(2-aminoethyl)amine)-7β-hydroxy-5α-cholestane]",20 µg/mL,2.5 µg/mL,20 mg/L,20 mg/L,5 mg/L,5 mg/L,4.34,2.5 mg/L,2.5 mg/L,5 mg/L,40 mg/L,–
"CC(C)[C@@H](CC[C@@H](C)[C@H]1CC[C@H]2[C@@H]3[C@H](O)C[C@H]4C[C@@H](NCCCNCCCCN)CC[C@]4(C)[C@H]3CC[C@]12C)OS(=O)(=O)O [Squalamine, squalamine]",1.75 µg/mL,1.75 µg/mL,12 mg/L,–,4 mg/L,–,–,2 mg/L,4 mg/L,4 mg/L,20 mg/L,–
O=C(N[C@H](CO)[C@H](O)c1ccc([N+](=O)[O-])cc1)C(Cl)Cl [chloramphenicol],–,–,–,–,–,–,–,–,–,–,–,1020 mg/L

# From patent US10729701B2, “Compounds that are analogs of squalamine, used as antibacterial agents” (VIRBAC, priority 2015, dated 2020)
